From ChEMBL document CHEMBL1201862, “PubChem BioAssay data set” (2004)
Calls of active or inactive are those of the source.

Legend:
[1] = Luminescence Cell-Based Dose Retest to Confirm Inhibitors of Cancer Stem Cells. [Related pubchem assays (depositor defined):AID2717, AID2721]; type: functional, Homo sapiens; settings: Homo sapiens
[2] = system: Vero; assay: cells; type: functional; settings: Chlorocebus sabaeus
[3] = biological target: T1, DNA repair protein RAD52 homolog (Homo sapiens, UniProt P43351); type: functional, biochemical
T1 sequence (P43351 whole entry): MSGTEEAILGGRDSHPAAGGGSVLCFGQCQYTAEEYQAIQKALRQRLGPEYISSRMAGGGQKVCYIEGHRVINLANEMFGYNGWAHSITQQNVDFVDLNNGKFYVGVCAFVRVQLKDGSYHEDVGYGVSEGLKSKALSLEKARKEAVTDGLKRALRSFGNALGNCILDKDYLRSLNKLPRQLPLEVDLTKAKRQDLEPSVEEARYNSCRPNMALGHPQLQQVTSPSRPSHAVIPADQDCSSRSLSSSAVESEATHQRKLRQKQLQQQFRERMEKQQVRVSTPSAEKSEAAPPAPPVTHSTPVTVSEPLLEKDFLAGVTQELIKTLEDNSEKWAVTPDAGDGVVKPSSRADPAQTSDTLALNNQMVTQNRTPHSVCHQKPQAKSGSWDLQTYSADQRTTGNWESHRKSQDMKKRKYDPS

[4] = biological target: T2, Replicative DNA helicase DnaB (Mycobacterium tuberculosis, UniProt P9WMR3); assay: DnaB intein splicing inhibitors, dose response, biochemical, cell-free fluorescence (AID 449749); type: functional
T2 sequence (P9WMR3 whole entry): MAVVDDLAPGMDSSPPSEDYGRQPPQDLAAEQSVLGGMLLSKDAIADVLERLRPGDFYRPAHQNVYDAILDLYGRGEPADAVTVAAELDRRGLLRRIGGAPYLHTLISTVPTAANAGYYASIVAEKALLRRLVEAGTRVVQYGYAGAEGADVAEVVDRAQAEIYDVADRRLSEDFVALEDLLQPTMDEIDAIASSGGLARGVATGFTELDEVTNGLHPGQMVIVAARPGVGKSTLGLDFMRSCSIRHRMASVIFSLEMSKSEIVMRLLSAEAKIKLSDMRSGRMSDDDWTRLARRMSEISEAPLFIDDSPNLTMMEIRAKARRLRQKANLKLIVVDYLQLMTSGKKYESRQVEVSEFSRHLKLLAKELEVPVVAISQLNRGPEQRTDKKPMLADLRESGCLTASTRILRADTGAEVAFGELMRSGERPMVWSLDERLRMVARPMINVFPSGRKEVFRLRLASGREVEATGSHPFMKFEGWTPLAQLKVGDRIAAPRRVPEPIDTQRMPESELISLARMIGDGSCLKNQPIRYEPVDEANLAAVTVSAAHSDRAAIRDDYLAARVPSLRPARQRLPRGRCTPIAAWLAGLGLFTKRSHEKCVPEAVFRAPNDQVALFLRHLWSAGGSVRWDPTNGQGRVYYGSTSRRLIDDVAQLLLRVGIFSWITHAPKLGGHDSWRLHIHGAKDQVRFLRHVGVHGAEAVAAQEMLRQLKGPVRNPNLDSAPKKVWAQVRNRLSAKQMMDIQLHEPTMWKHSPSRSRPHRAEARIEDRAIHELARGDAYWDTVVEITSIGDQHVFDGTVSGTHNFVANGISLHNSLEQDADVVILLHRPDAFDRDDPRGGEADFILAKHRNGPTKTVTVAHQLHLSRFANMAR

[5] = biological target: T3, Protein RecA (Mycobacterium tuberculosis, UniProt P9WHJ3); assay: Fluorescence Cell-Free Homogeneous Dose Retest to Identify Inhibitors of RecA-Intein Splicing Activity. [Related pubchem assays (depositor defined):AID2097, AID2223, AID489010, AID492950]; type: functional
T3 sequence (P9WHJ3 whole entry): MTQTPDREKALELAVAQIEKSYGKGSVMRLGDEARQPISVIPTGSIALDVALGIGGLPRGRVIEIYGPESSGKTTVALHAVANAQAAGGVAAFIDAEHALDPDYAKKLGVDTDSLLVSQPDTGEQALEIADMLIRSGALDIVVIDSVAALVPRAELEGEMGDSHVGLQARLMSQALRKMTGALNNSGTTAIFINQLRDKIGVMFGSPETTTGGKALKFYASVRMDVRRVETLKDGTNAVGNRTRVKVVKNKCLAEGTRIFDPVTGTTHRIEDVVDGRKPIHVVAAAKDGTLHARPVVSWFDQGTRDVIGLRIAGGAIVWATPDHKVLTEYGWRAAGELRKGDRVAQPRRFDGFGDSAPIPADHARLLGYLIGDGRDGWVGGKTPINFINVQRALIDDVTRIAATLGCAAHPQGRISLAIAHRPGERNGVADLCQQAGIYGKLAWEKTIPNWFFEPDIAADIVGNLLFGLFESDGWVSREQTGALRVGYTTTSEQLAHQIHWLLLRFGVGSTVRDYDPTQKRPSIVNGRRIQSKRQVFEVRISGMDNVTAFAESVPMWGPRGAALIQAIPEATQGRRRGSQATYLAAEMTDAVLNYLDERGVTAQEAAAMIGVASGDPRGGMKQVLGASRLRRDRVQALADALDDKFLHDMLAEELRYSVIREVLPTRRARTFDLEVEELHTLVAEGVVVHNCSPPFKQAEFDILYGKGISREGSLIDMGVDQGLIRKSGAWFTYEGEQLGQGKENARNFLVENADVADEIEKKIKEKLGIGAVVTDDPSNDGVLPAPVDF

[6] = biological target: T4, Ubiquitin-conjugating enzyme E2 N (Homo sapiens, UniProt P61088); type: functional;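 further: Dose-response confirmation in a TR-FRET assay detecting UBC13-driven polyubiquitin chain formation, inhibition measured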
T4 sequence (P61088 whole entry): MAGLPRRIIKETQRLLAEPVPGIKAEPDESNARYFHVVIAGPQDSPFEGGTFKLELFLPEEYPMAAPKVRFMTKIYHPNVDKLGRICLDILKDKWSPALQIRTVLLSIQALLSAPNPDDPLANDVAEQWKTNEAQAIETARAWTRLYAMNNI

[7] = microbe, parasite or virus in culture; type: functional; settings: Mycobacterium tuberculosis
[8] = biological target: Induced myeloid leukemia cell differentiation protein Mcl-1 (Homo sapiens, UniProt Q07820); type: functional
Chain of Induced myeloid leukemia cell differentiation protein Mcl-1 (Q07820 whole entry): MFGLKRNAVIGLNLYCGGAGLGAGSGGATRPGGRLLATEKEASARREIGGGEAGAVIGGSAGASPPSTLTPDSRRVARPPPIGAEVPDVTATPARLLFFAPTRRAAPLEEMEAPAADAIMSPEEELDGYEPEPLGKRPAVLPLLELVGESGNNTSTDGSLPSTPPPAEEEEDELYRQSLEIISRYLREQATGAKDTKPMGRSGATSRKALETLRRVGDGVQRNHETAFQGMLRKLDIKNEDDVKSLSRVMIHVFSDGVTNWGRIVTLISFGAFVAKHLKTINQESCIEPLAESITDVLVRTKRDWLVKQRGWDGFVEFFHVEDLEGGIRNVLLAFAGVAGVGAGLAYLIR

[9] = HEK-293T cell viability reduction – luminescence, B-cell screen hits, cytotoxicity control for BCR NF-kB inhibitor project, dose response (AID 489021); type: functional, cell-based;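 further: HEK-293T cells carrying an NF-kB luciferase reporter; cells exposed to compound for about 14 hours before viability readout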
[10] = biological target: T5, Rac GTPase-activating protein 1 (Homo sapiens, UniProt Q9H0H5); assay: blockers of MgcRacGAP-driven Rac1 GTP hydrolysis – biochemical, ADP Hunter fluorescence, primary and confirmatory, confirmation (AID 624330); type: functional
T5 sequence (Q9H0H5 whole entry): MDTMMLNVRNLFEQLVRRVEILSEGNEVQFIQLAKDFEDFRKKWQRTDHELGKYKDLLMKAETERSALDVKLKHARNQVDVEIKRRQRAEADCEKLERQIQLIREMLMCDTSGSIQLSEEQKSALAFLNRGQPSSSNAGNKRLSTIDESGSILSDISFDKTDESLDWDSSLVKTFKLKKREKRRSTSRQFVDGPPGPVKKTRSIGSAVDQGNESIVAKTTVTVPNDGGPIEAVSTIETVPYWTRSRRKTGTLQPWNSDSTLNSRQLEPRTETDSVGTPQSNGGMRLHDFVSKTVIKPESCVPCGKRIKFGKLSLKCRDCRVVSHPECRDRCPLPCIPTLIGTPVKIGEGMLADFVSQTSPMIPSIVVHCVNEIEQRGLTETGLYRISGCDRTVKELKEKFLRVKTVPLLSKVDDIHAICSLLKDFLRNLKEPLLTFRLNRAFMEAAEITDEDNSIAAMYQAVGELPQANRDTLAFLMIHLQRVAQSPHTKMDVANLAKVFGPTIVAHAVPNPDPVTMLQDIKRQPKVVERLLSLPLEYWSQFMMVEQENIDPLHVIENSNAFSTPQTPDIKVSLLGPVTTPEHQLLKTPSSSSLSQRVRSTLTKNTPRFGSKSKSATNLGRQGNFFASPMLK

[11] = Vero E6 cell cytotoxicity, dose response, cytotoxicity control for non-replicating M. tuberculosis project, secondary assay (AID 492998); type: functional, VeroE6; settings: Vero C1008
[12] = system: Streptococcus; assay: GAS UMAA2166 growth inhibition – luminescence, BacTiterGlo, counter-screen for streptokinase expression inhibitor project, dose response (AID 1915); type: functional, organism-based; settings: Streptococcus;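 further: potency for reduction of bacterial viability or growth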
[13] = NIH3T3 cell viability loss – ATP luminescence, mouse fibroblasts, counter-screen, dose response (AID 2010); type: functional, cell-based; settings: NIH3T3;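 further: cells exposed to compound for about 90 hours before reading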
[14] = cells; type: functional
[15] = Trypanosoma cruzi growth suppression in host cells – NIH3T3 host cells, beta-gal luminescence, confirmation (AID 2044); type: functional, cell-based;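 further: intracellular parasites grown in NIH/3T3 mouse fibroblasts as host cells; luminescent beta-galactosidase reporter signal from transgenic T. cruzi replicating inside host cells; inhibitors lower the luminescence signal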
[16] = system: Streptococcus sp. 'group A'; assay: Streptococcus pyogenes SK(-)GAS viability under kanamycin – luminescence, BacTiterGlo, confirmation, counter-screen for streptokinase expression inhibitor project, dose response (AID 1900); type: functional, organism-based; settings: Streptococcus sp. 'group A'
[17] = THP-1 cell cytotoxicity, dose response, cytotoxicity control for non-replicating M. tuberculosis project (AID 489025); type: functional
[18] = system: HEK293; assay: NOD2 signaling inhibitors in MDP-stimulated cells, cell-based, uHTS, luminescence (AID 2001); type: functional; settings: Homo sapiens
[19] = NIH-3T3 fibroblast cytotoxicity, dose response, cytotoxicity control, cell-based, fluorescence, Alamar Blue, secondary assay (AID 2327); type: functional;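 further: NIH-3T3 mouse fibroblasts cultured with fluconazole at 8 µg/mL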
[20] = system: HEK293; assay: cells; type: functional, cell-based; settings: Homo sapiens
[21] = system: HEK293; assay: inhibition of NOD1-driven NF-kB reporter – cell-based, luminescence, uHTS, primary screen (AID 1578); type: functional; settings: Homo sapiens
[22] = fluconazole-exposed Candida albicans growth modulators – fluorescence, retest, confirmation (AID 2467); type: functional, cell-based
[23] = system: HEK293; assay: cells; type: functional, cell-based; settings: Homo sapiens; remark: listed apart in the source
[24] = blockers of HIV-1 envelope-mediated cell-cell fusion – cherry-pick, dose response (AID 652057); type: functional, cell-based
[25] = viability of PTEN-deleted HCT116 cells – cell-based, HCT116 PTEN knockout, dose response (AID 1047); type: functional;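 further: HCT116 colon tumor cells with PTEN knocked out; cells exposed to compound for 60 hours before readout; potency for loss of cell viability measured by luminescence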
[26] = viability of HCT116 lacking mutant beta-catenin – cell-based, human colon tumor, dose response (AID 1045); type: functional;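 further: HCT116 colon tumor cells with beta catenin knocked out; cells exposed to compound for 60 hours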

## CC(C)C[C@H](NC(=O)c1[nH]cnc1C(=O)NC(c1ccccc1)c1ccccc1)C(=O)OC(C)(C)C
[1]
  AC50: 3.44 µM (active)
[2]
  CC50: 19.3 µM (active)

## COC(=O)/C=C\C(C#N)(C#N)N=Cc1ccc(OC)cc1
[2]
  CC50: > 25 µM (active)

## CCN(CCN(C)C)C(=O)c1ccc2c(c1NCCO)C(=O)c1ccccc1C2=O
[3]
  AC50: 6.06 µM (active)
[4]
  AC50: 0.0471 µM (active)
[5]
  EC50: < 0.018 µM (active)

## FC(F)(F)c1cc(CO[C@@H]2CCCN[C@@H]2c2ccccc2)cc(C(F)(F)F)c1
[6]
  IC50: > 20 µM (inactive)
[7]
  CC50: 24.2 µM (active)

## O=[N+]([O-])c1ccc2c(c1)=[N+]([O-])C1(CCCCC1)[N+]=2[O-]
[8]
  IC50: 4.85 µM (active)

## COc1ccccc1NC(=O)CNC(=O)CC12CC3CC(CC(C3)C1)C2
[6]
  IC50: > 20 µM (inactive)

## CSc1ccc(C(=O)/C=C/c2ccc(N)cc2)cc1
[2]
  CC50: 18.7 µM (active)

## CC1Cc2ccccc2N1S(=O)(=O)c1cnc(Cl)c(Br)c1 (stereo unspecified)
[9]
  IC50: 69.3 µM (inactive)

## CN1CCN(c2ccc(N)c(N3CCN(C)CC3)c2)CC1
[10]
  IC50: 33.3 µM (active)
[6]
  IC50: > 20 µM (inactive)

## CN(C)CCCOc1ccc(-c2cc3nc(NCc4cccnc4)n(C)c(=O)c3s2)cn1
[3]
  AC50: 11.2 µM (active)

## Cc1ccn2c(NC3CCCC3)c(-c3ccccn3)nc2c1
[11]
  CC50: 10.1 µM (active)
[12]
  EC50: 13.3 µM (active)
[13]
  EC50: > 60 µM (not active)
[14]
  IC50: 4.71 µM (active)
[15]
  EC50: 2.06 µM (active)
[16]
  EC50: 3.14 µM (active)
[17]
  CC50: 17.5 µM (active)

## COc1ccc(C(=O)Nc2ccccc2C(=O)NCc2ccco2)cc1OC
[9]
  IC50: > 80 µM (inactive)

## CC(C)(C)NC(=S)N/N=C/c1cc(Br)c(O)c(Br)c1
[18]
  IC50: 16.9 µM (inactive)
[19]
  EC50: 32.2 µM (active)
[20]
  IC50: > 20 µM (inactive)
[21]
  EC50: 5.75 µM (active)
[22]
  EC50: 2.86 µM (active)
[23]
  IC50: > 20 µM (inactive)

## C=CCOc1ccc(C2C(C#N)=C(N)N(Nc3ccccc3)C3=C2C(=O)CC(C)(C)C3)cc1OC (stereo unspecified)
[7]
  CC50: 35.8 µM (active)

## CCC(=O)N(C)C[C@H]1Oc2cc(/C=C/c3ccccc3)ccc2S(=O)(=O)N([C@@H](C)CO)C[C@H]1C
[24]
  AC50: 20.7 µM (active)

## COc1ccccc1/C=C1\SC(=S)N(CCC(=O)Nc2nnc(C)s2)C1=O
[9]
  IC50: > 80 µM (inactive)

## C/C(=N\NC(=O)c1nnn(-c2nonc2N)c1CN(C)c1ccccc1)c1ccccn1
[7]
  CC50: 2.43 µM (active)

## Clc1ccc2c(N/N=C/c3ccc(Br)cc3)ccnc2c1
[12]
  EC50: 3.89 µM (active)
[25]
  EC50: 15.5 µM (active)
[1]
  AC50: 3.79 µM (active)
[16]
  EC50: 2.54 µM (active)
[26]
  EC50: 9.32 µM (active)

## C[C@H](NC(=O)c1[nH]cnc1C(=O)Nc1ccccc1)C(=O)OC(C)(C)C
[11]
  CC50: > 20 µM (active)
[14]
  IC50: 8.07 µM (active)
[17]
  CC50: > 40 µM (active)

## CCN(CC)CCOCCOc1ccc(Cl)c2ccccc12
[2]
  CC50: > 25 µM (active)

## c1ccc(C[C@H]2CN=C(Nc3ccccc3)N2CCCC2CCCCC2)cc1
[6]
  IC50: > 20 µM (inactive)

## CNC(=O)c1ccccc1NC(=O)c1cccc(S(=O)(=O)N2CCC(C)CC2)c1
[6]
  IC50: > 20 µM (inactive)

## CCN(CC)CCNc1ncnc2c1sc1nc(N3CCOCC3)c3c(c12)CCCC3
[3]
  AC50: 4.88 µM (active)
[6]
  IC50: > 20 µM (inactive)
